Source: US10905769B2, “Peptide and peptide mimetic binding antagonists of polo-like kinase 1 polo box domain and methods of use” (priority 2015, dated 2021)
Like-named read-outs stand apart in the source and are kept apart here. Peptide text beside a SMILES is read from it.

Experiments:
[1] = molecular target: T1, Plk1 PBD (Homo sapiens, UniProt P53350); assay: biochemical; format: binding; set-up: and Plk1 PBD (Plasmid #41162) (45) linked to a 3× myc tagged; host or cells: HEK293T, crude cytosolic lysate; settings: Cell Lysate ELISA IC50 (μM)
Method: HEK293T cells were plated on 10 cm culture dishes at 4M cells per plate. Following 24 h, the cells were transfected with 10 μg of plasmid DNA using 20 μL of TurboFect transfection reagent (Pierce Biotechnology) according to the manufacturer's instructions. Following 24 h, the cells were harvested using trypsin, washed with phosphate-buffered saline (PBS) 7.4 buffer, and lysed in lysis buffer (PBS 7.4+0.5% NP-40+protease/phosphatase inhibitor cocktail (Pierce Biotechnology)) using 3 freeze/thaw cycles. The lysed suspension was centrifuged at 10,000×G for 10 minutes to pellet membrane proteins and nuclei. The supernatant was removed to provide a crude cytosolic lysate containing expressed myc-tagged Plk1 or Plk1 PBD. The total protein concetration was determined using a Bicinchoninic Acid (BCA) assay kit (Pierce Biotechnology).
All assay steps were performed at room temperature with gentle shaking. A biotinylated phosphopeptide (sequence: Biotin-Ahx-PMQS(pT)PLN-NH2) (46-48) was diluted with PBS 7.4 to 1 μM (from a 10 mM dimethylsulfoxide (DMSO) stock solution) and loaded onto the wells of a 96-well Neutravidin-coated plate (Pierce Biotechnology) at 100 μL per well for 1 hour. The wells were washed once with 150 μL PBST (PBS 7.4+0.05% Tween-20), and then 100 μL of 1% bovine serum albumin (BSA) in PBS 7.4 (blocking buffer) were added for 1 hour. The cytosolic lysate containing myc-tagged protein was diluted to 300 μg/mL in PBS 7.4 containing protease/phosphatase inhibitors (Pierce Biotechnology), mixed with competitive inhibitor (from a 10× stock in 5% DMSO/PBS), and allowed to pre-incubate for 1 h (100 μL per well in a 96-well plate, 30 μg total protein). The blocked ELISA plate was washed 2× with PBST (150 μL) and the pre-incubated lysates were added to the plate to incubate for 1 hour. The wells were washed 4× with PBST (150 μL), then probed with anti-myc primary antibody (1:1500 dilution for assays that include macrocyclic peptidomimetic ligand of the present disclosure and 1:3000 dilution for all other assays, mouse monoclonal, Pierce Biotechnology) for 1 hour. […] The wells were then washed 5× with PBST (150 μL) and incubated with Turbo TMB-ELISA solution (Pierce Biotechnology) until the desired absorbance is reached (5-10 minutes). The reaction was quenched by the addition of 2M aq. H2SO4 and the absorbance was measured at 450 nm using a BioTek Synergy 2 96-well plate reader.
Compounds were evaluated for inhibition of Plk1 PBD binding to a pThrcontaining peptide by ELISA in cell lysates and by inhibition of cell proliferation in HeLa cells. Pmab=2(S)-amino-3(R)-methyl-4-phosphonobutanoic acid.
Target sequence in this assay (P53350 326-603 limits assumed): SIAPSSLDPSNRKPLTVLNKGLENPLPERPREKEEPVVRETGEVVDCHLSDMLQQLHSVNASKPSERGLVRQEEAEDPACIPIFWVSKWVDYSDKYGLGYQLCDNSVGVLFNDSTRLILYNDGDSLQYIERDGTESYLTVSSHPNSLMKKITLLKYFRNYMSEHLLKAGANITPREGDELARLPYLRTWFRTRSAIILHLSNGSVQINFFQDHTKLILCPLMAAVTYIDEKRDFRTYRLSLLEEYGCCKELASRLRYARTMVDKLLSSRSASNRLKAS

[2] = molecular target: T2, full-length Plk1 (Homo sapiens, UniProt P53350); assay: ELISA inhibition assay: full-length Plk1 binding to immobilized pThr-containing peptide; settings: FIG. 5A/5B
T2 construct: Plasmids encoding full length Plk1 (Plasmid #41160); host or cells: HEK293T, crude cytosolic lysate

[3] = molecular target: T1, Plk1 PBD; format: binding; set-up: host or cells: HEK293T, crude cytosolic lysate; settings: average ± SEM from five independent experiments
Target sequence in this assay (P53350 whole entry): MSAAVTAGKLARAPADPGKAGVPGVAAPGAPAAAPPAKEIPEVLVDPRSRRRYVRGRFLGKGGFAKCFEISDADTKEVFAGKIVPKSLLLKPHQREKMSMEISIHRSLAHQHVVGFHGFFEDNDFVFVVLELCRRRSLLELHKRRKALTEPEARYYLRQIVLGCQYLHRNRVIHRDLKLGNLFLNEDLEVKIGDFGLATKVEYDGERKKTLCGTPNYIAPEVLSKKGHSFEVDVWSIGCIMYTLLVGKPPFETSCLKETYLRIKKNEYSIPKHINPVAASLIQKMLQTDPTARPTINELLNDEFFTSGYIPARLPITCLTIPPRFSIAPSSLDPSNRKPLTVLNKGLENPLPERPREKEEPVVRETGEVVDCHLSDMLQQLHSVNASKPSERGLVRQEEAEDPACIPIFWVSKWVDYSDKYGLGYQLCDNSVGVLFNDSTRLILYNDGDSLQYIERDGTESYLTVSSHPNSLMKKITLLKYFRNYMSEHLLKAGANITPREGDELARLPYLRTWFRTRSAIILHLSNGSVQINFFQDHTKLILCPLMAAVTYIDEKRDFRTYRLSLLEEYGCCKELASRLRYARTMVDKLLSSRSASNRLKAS
Method: All assay steps were performed at room temperature with gentle shaking. A biotinylated phosphopeptide (sequence: Biotin-Ahx-PMQS(pT)PLN-NH2) (46-48) was diluted with PBS 7.4 to 1 μM (from a 10 mM dimethylsulfoxide (DMSO) stock solution) and loaded onto the wells of a 96-well Neutravidin-coated plate (Pierce Biotechnology) at 100 μL per well for 1 hour. The wells were washed once with 150 μL PBST (PBS 7.4+0.05% Tween-20), and then 100 μL of 1% bovine serum albumin (BSA) in PBS 7.4 (blocking buffer) were added for 1 hour. The cytosolic lysate containing myc-tagged protein was diluted to 300 μg/mL in PBS 7.4 containing protease/phosphatase inhibitors (Pierce Biotechnology), mixed with competitive inhibitor (from a 10× stock in 5% DMSO/PBS), and allowed to pre-incubate for 1 h (100 μL per well in a 96-well plate, 30 μg total protein). […] The wells were then washed 5× with PBST (150 μL) and incubated with Turbo TMB-ELISA solution (Pierce Biotechnology) until the desired absorbance is reached (5-10 minutes). […] H2SO4 and the absorbance was measured at 450 nm using a BioTek Synergy 2 96-well plate reader.
Absorbance was plotted versus concentration (log M) and fit to a non-linear regression using GraphPad Prism 6 software (model: log(inhibitor) vs. response—Variable slope (four parameters)) to provide IC50 values. […]

[4] = Table 7, compounds 2 and 3 tested simultaneously for direct comparison

T2 sequence (P53350 whole entry): as above

## CC(=O)N1CCCC1C(=O)N[C@@H](CC(C)C)C(=O)N[C@@H](Cc1cncn1CCc1ccccc1)C(=O)N[C@@H](CO)C(=O)NC(C(N)=O)C(C)OP(=O)(O)O (stereo in doubt) [compound 3]
[1]; Table 6
  IC50: 0.017 µM
[1]; [4]
  IC50: 0.023 µM

## CC(=O)N1CCC[C@H]1C(=O)N[C@@H](CC(C)C)C(=O)N[C@H]1C[C@H](CCCCCCCCc2ccccc2)C(=O)NCCC[C@@H](C(N)=O)NC(=O)[C@H]([C@@H](C)OP=O)NC(=O)[C@H](CO)NC1=O (some centres unmarked) [15a, cPLE*SpTO] (HELM PEPTIDE1{[ac].P.L.[O=C([C@H](C[C@H](CCCCCCCCc1ccccc1)C(=O)[*:3])N[*:1])[*:2]].S.[C[C@@H](OP=O)[C@H](N[*:1])C(=O)[*:2]].[Orn].[am]}$PEPTIDE1,PEPTIDE1,4:R3-7:R3$$$V2.0)
[2]
  inhibitory potency in competitive ELISA versus parent peptide 1 (4j): improved potencies versus the parent peptide 1

## CC(=O)N1CCC[C@H]1C(=O)N[C@@H](CC(C)C)C(=O)N[C@@H](Cc1cncn1CCCCCCCCc1ccccc1)C(=O)N[C@@H](CO)C(=O)N[C@H](C(N)=O)[C@@H](CCc1ccccc1)CP(=O)(O)O [18e] (HELM PEPTIDE1{[ac].P.L.[O=C([C@H](Cc1cncn1CCCCCCCCc1ccccc1)N[*:1])[*:2]].S.[O=C([C@@H](N[*:1])[C@@H](CCc1ccccc1)CP(=O)(O)O)[*:2]].[am]}$$$$V2.0; N-terminus assumed)
[3]
  IC50: 70 ± 20 nM

## CC(=O)N1CCCC1C(=O)N[C@@H](CC(C)C)C(=O)N[C@@H](Cc1cncn1CCc1ccccc1)C(=O)N[C@@H](CO)C(=O)NC(C(N)=O)[C@@H](Cc1ccccc1)CP(=O)(O)O (some centres unmarked) [compound 16]
[1]; [4]
  IC50: 0.035 µM

## CC(=O)N1CCC[C@H]1C(=O)N[C@@H](CC(C)C)C(=O)N[C@H]1C[C@H](CCCCCCCCc2ccccc2)C(=O)NCCCC[C@H](C(N)=O)NC(=O)[C@H]([C@@H](C)OP=O)NC(=O)[C@H](CO)NC1=O (some centres unmarked) [15d, cPLE*SpTk] (HELM PEPTIDE1{[ac].P.L.[O=C([C@H](C[C@H](CCCCCCCCc1ccccc1)C(=O)[*:3])N[*:1])[*:2]].S.[C[C@@H](OP=O)[C@H](N[*:1])C(=O)[*:2]].[dK].[am]}$PEPTIDE1,PEPTIDE1,4:R3-7:R3$$$V2.0)
[2]
  inhibitory potency in competitive ELISA versus parent peptide 1 (4j): dramatic reductions in potency

## CC(=O)N1CCC[C@H]1C(=O)N[C@@H](CC(C)C)C(=O)N[C@H]1C[C@H](CCCCCCCCc2ccccc2)C(=O)NCCCC[C@@H](C(N)=O)NC(=O)[C@H]([C@@H](C)OP=O)NC(=O)[C@H](CO)NC1=O (some centres unmarked) [15c, cPLE*SpTK] (HELM PEPTIDE1{[ac].P.L.[O=C([C@H](C[C@H](CCCCCCCCc1ccccc1)C(=O)[*:3])N[*:1])[*:2]].S.[C[C@@H](OP=O)[C@H](N[*:1])C(=O)[*:2]].K.[am]}$PEPTIDE1,PEPTIDE1,4:R3-7:R3$$$V2.0)
[2]
  inhibitory potency in competitive ELISA versus parent peptide 1 (4j): improved potencies versus the parent peptide 1

## CC(=O)N1CCC[C@H]1C(=O)N[C@@H](CC(C)C)C(=O)N[C@@H](Cc1cncn1CCCCCCCCc1ccccc1)C(=O)N[C@@H](CO)C(=O)N[C@H](C(N)=O)[C@@H](Cc1ccccc1)CP(=O)(O)O [18d] (HELM PEPTIDE1{[ac].P.L.[O=C([C@H](Cc1cncn1CCCCCCCCc1ccccc1)N[*:1])[*:2]].S.[O=C([C@@H](N[*:1])[C@@H](Cc1ccccc1)CP(=O)(O)O)[*:2]].[am]}$$$$V2.0; N-terminus assumed)
[3]
  IC50: 300 ± 80 nM

## CC(=O)N1CCC[C@H]1C(=O)N[C@@H](CC(C)C)C(=O)N[C@H]1C[C@H](CCCCCCCCc2ccccc2)C(=O)NCCC[C@@H](C(N)=O)NC(=O)[C@H]([C@@H](C)OP=O)NC(=O)[C@H](CO)NC1=O (some centres unmarked) [15b, cPLE*SpTo] (HELM PEPTIDE1{[ac].P.L.[O=C([C@H](C[C@H](CCCCCCCCc1ccccc1)C(=O)[*:3])N[*:1])[*:2]].S.[C[C@@H](OP=O)[C@H](N[*:1])C(=O)[*:2]].[Orn].[am]}$PEPTIDE1,PEPTIDE1,4:R3-7:R3$$$V2.0)
[2]
  inhibitory potency in competitive ELISA versus parent peptide 1 (4j): dramatic reductions in potency

## CC(=O)N1CCCC1C(=O)N[C@@H](CC(C)C)C(=O)N[C@@H](Cc1cnc[nH]1)C(=O)N[C@@H](CO)C(=O)NC(C(N)=O)[C@@H](Cc1ccccc1)CP(=O)(O)O (some centres unmarked) [compound 15] (HELM PEPTIDE1{[ac].[O=C(C1CCCN1[*:1])[*:2]].L.H.S.[O=C(C(N[*:1])[C@@H](Cc1ccccc1)CP(=O)(O)O)[*:2]].[am]}$$$$V2.0)
[1]; [4]
  IC50: 50 µM

## CC(=O)N1CCCC1C(=O)N[C@@H](CC(C)C)C(=O)N[C@@H](Cc1cncn1CCc1ccccc1)C(=O)N[C@@H](CO)C(=O)NC(C(N)=O)C(C)CP(=O)(O)O (some centres unmarked) [compound 4]
[1]; Table 6
  IC50: 0.02 µM
